Measurements as given in ChEMBL document CHEMBL1156613, “Potent and selective pyrazole-based inhibitors of B-Raf kinase” (Bioorg Med Chem Lett, 2008).
Values after ≈ are worked out from the molar mass of the structure shown. Active and inactive are the calls of the source. No cut-off for these calls is given here.

Key:
[1] = molecular target: Serine/threonine-protein kinase B-raf (Homo sapiens, UniProt P15056); test: Inhibition of human recombinant B-Raf by fluorescence anisotropy
[2] = molecular target: Mitogen-activated protein kinase; ERK1/ERK2 (Homo sapiens, UniProt P27361+P28482); test: Inhibition of ERK1/2 phosphorylation in human MALME3M cells; assay type: cell-based
[3] = Aqueous solubility at pH 6.5 by shake-flask method; assay type: physicochemical; conditions: aqueous medium
Mus musculus = test: Inhibition of ERK phosphorylation in human LOX tumor xenografted mouse at 25 mg/kg, po after 1 hrs by Western blot method; assay type: functional, organism-based; design: dose 25 mg/kg

Serine/threonine-protein kinase B-raf, sequence (P15056 whole entry): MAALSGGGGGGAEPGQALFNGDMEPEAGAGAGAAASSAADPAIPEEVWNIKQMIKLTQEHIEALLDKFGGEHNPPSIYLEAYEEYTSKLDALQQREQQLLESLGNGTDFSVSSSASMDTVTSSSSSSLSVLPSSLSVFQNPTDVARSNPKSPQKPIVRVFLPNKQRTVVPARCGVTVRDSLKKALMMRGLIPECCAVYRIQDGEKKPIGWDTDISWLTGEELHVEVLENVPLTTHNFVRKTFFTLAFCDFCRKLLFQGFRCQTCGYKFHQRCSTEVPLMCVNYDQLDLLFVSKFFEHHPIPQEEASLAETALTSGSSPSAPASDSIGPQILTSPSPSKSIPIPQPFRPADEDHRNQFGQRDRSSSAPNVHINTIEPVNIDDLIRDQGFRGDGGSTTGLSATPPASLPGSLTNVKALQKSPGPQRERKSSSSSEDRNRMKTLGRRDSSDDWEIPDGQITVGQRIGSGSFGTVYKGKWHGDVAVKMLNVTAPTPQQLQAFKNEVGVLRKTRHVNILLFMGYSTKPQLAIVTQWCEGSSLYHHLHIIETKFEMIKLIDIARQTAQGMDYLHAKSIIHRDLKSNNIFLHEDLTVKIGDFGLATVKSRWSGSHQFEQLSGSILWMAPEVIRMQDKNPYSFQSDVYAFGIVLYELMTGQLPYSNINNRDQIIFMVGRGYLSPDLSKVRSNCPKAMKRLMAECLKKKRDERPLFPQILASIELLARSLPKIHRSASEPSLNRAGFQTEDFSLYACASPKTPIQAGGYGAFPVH

Compound	IC50 [1] [nM]	IC50 [2] [nM]	solubility thermodynamic [3] [µg/mL]	Activity (Mus musculus)
Cn1cc(-c2ccc3c(c2)CC/C3=N\O)c(-c2cccnc2)n1	434	–	–	–
O/N=C1\CCc2cc(-c3c[nH]nc3-c3ccncc3)ccc21	0.15	53	–	–
CN1CCC(n2cc(-c3ccc4c(c3)CC/C4=N\O)c(-c3ccncc3)n2)CC1	0.34	10	–	–
Cn1cc(-c2ccc(/C(N)=N\O)cc2)c(-c2ccncc2)n1	18.4	20000	–	–
OCCCn1cc(-c2ccc3c(c2)CC/C3=N\O)c(-c2ccncc2)n1	0.05	26	–	–
Cn1cc(-c2ccc3c(c2)CC/C3=N\O)c(-c2ccc3c(cnn3C)c2)n1	970	–	–	–
OCCn1cc(-c2ccc3c(c2)CC/C3=N\O)c(-c2ccncc2)n1	–	–	76 (≈ 227 µM)	Active
O/N=C1\CCc2cc(-c3cn(C4CCNCC4)nc3-c3ccncc3)ccc21	0.03	9	52 (≈ 139 µM)	inactive
Cn1cc(-c2ccc3c(c2)Cc2c[nH]nc2-3)c(-c2ccncc2)n1	1.5	1900	–	–
Cn1cc(-c2ccc3c(c2)CC/C3=N\O)c(-c2ccncc2)n1	0.02	33	–	–
Cn1cc(-c2ccc3c(c2)CC/C3=N\O)c(-c2ccncn2)n1	3.1	1500	–	–
Cn1cc(-c2ccc3c(c2)C(=O)NC3)c(-c2ccncc2)n1	68.4	–	–	–
Cc1c[nH]nc1-c1ccc(-c2cn(C)nc2-c2ccncc2)cc1	4.4	18000	–	–
Cn1cc(-c2ccc3c(c2)CN/C3=N/O)c(-c2ccncc2)n1	< 2	56	590 (≈ 1930 µM)	–
O/N=C1\CCc2cc(-c3cn(CC4CCCNC4)nc3-c3ccncc3)ccc21 (stereo unspecified)	0.85	154	–	–
O/N=C1\CCc2cc(-c3cn(C4CCOCC4)nc3-c3ccncc3)ccc21	0.22	48	–	–
O/N=C1\CCc2cc(-c3cn([C@@H]4CCC[C@H](O)C4)nc3-c3ccncc3)ccc21 (relative stereo)	0.04	7	3 (≈ 7.72 µM)	Active
CN(C)CCCn1cc(-c2ccc3c(c2)CC/C3=N\O)c(-c2ccncc2)n1	0.47	122	–	–
OCC(O)Cn1cc(-c2ccc3c(c2)CC/C3=N\O)c(-c2ccncc2)n1 (stereo unspecified)	0.87	22	–	–

Compound	IC50 [1] [nM]	IC50 [2] [nM]	solubility thermodynamic [3] [µg/mL]	Activity (Mus musculus)
CNC1CCCC(n2cc(-c3ccc4c(c3)CC/C4=N\O)c(-c3ccncc3)n2)C1 (stereo unspecified)	0.23	18	–	–
CN(C)CCn1cc(-c2ccc3c(c2)CC/C3=N\O)c(-c2ccncc2)n1	4.02	607	–	–
NCCn1cc(-c2ccc3c(c2)CC/C3=N\O)c(-c2ccncc2)n1	2.4	119	–	–
O/N=C1\CCc2cc(-c3cn([C@H]4CCC[C@@H]4O)nc3-c3ccncc3)ccc21 (relative stereo)	0.33	37	–	–
COCCn1cc(-c2ccc3c(c2)CC/C3=N\O)c(-c2ccncc2)n1	1.16	569	–	–
O/N=C1\CCc2cc(-c3cn(C4CCCC4)nc3-c3ccncc3)ccc21	3.46	57	–	–
Cn1ncc(-c2ccc3c(c2)CC/C3=N\O)c1-c1ccncc1	0.48	165	–	–
O/N=C1\CCc2cc(-c3cn([C@@H]4CCC[C@@H](O)C4)nc3-c3ccncc3)ccc21 (relative stereo)	0.09	17	–	–
O/N=C1\CCc2cc(-c3cn(CC4CCNCC4)nc3-c3ccncc3)ccc21	1.2	332	–	–
Cn1cc(-c2ccc3c(c2)CC/C3=N\O)c(-c2ccnc(O)c2)n1	2.9	800	–	–
Cn1cc(-c2ccc3c(c2)CCN/C3=N/O)c(-c2ccncc2)n1	16	10000	–	–
Cn1cc(-c2ccc3cn[nH]c3c2)c(-c2ccncc2)n1	70	–	–	–
O/N=C1\CCc2cc(-c3cn([C@H]4CCC[C@H]4O)nc3-c3ccncc3)ccc21 (relative stereo)	3.91	245	–	–
OCC(CO)n1cc(-c2ccc3c(c2)CC/C3=N\O)c(-c2ccncc2)n1	0.56	171	–	–
CCn1cc(-c2ccc3c(c2)CC/C3=N\O)c(-c2ccncc2)n1	0.57	18	–	–
Cn1cc(-c2ccc(-c3cc[nH]n3)cc2)c(-c2ccncc2)n1	68.4	–	–	–
Cn1cc(-c2ccc3c(c2)CC/C3=N\O)c(-c2ccnc(N)c2)n1	2.1	1000	–	–
Cn1cc(-c2ccc3c(c2)CC/C3=N\O)c(-c2cnco2)n1	4.1	2400	–	–
NCCCn1cc(-c2ccc3c(c2)CC/C3=N\O)c(-c2ccncc2)n1	0.39	20	–	–
